Test results from paper PMC6511888, “Synthesis, Biological Evaluation, and Molecular Modeling Studies of New Thiadiazole Derivatives as Potent P2X7 Receptor Inhibitors” (Frontiers in Chemistry, 2019).
Each block holds one molecule with its values, some of them ahead of it.

What was measured:
Format in all cases: cell-based
P2Y2R = target: T1, P2Y2R (Mus musculus, UniProt P35383); test: 2-S-UTP-activated [Ca2+]i shifts in mouse peritoneal macrophages; conditions: 1 μM
T1 construct: endogenous in cells; host or cells: mouse peritoneal macrophages
T1 sequence (P35383 whole entry): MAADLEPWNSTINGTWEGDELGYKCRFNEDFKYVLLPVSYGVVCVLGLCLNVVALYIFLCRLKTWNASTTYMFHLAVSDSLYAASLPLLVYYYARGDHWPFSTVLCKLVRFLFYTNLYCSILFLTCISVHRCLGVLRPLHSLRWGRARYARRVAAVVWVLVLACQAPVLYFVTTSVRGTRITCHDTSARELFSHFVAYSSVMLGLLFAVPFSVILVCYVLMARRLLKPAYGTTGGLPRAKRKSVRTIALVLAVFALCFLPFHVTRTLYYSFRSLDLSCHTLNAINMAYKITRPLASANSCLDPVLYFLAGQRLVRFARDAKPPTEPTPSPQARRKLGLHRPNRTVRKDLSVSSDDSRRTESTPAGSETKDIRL
Procedure: (§1) Mouse peritoneal macrophages, PC12 cells, J774 cells, and HEPG2 cells were analyzed by fluorescence microscopy to measure the intracellular Ca^2+ concentrations ([Ca^2+]i). Cells were incubated with 2 μM Fura-2-AM (Molecular Probes) for 30 min, and the [Ca^2+]i mobilization was measured in the F340/F380 ratios with a FlexStation 3 multimode microplate reader (Molecular Devices). Cells were plated in translucent 96-well plates (BD Falcon) for 15 min and then washed and incubated in a saline solution with 150 NaCl, 5 KCl, 1 MgCl2, 1 CaCl2, and 10 HEPES (pH 7.4) for 30 min before measurements of [Ca^2+]i. The Ca^2+ influx was induced by stimulating cells with P2 receptor agonists. P2 receptor antagonists were added 10 min before P2 receptor agonist addition. […] Ionomycin was considered a positive control, and the other recordings were normalized in relation to the AUC.

P2X4R = target: T2, P2X4R (Rattus norvegicus, UniProt P51577); test: ATP-induced [Ca2+]i shifts potentiated by ivermectin in NR8383 alveolar macrophage cell line; conditions: 1 μM; NR8383 cells
T2 construct: endogenous in cells; host or cells: NR8383 rat alveolar macrophage cell line
T2 sequence (P51577 1-388): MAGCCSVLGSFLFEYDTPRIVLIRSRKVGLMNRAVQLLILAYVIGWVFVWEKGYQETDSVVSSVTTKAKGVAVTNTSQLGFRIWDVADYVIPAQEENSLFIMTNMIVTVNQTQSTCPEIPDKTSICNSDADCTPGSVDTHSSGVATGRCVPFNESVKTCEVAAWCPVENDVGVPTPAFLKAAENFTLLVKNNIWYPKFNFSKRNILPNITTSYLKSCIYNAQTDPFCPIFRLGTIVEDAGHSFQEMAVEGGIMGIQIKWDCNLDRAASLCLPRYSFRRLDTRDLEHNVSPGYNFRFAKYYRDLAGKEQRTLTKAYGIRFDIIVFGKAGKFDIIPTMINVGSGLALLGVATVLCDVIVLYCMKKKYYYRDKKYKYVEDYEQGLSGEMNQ

P2Y1R = target: T3, P2Y1R (Mus musculus, UniProt P49650); test: ADP-induced [Ca2+]i shifts in mouse peritoneal macrophages; conditions: 1 μM
T3 construct: endogenous in cells; host or cells: mouse peritoneal macrophages
T3 sequence (P49650 whole entry): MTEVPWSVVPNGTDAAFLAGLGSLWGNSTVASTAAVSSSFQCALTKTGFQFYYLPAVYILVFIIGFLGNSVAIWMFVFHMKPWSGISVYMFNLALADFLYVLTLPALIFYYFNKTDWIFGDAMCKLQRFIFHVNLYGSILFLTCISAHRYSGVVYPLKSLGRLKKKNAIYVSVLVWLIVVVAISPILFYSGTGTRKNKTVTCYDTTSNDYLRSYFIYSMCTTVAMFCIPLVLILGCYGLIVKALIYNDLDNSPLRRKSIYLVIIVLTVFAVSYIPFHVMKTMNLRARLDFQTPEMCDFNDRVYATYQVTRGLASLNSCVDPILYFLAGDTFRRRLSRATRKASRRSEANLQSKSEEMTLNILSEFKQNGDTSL
Procedure: as §1

P2X1R = target: T4, P2X1R (Mus musculus, UniProt P51576); test: β,γ-meATP-induced intracellular Ca2+ mobilization in J774 cells; conditions: 10 μM
T4 construct: endogenous in cells; host or cells: J774 cells
T4 sequence (P51576 1-399): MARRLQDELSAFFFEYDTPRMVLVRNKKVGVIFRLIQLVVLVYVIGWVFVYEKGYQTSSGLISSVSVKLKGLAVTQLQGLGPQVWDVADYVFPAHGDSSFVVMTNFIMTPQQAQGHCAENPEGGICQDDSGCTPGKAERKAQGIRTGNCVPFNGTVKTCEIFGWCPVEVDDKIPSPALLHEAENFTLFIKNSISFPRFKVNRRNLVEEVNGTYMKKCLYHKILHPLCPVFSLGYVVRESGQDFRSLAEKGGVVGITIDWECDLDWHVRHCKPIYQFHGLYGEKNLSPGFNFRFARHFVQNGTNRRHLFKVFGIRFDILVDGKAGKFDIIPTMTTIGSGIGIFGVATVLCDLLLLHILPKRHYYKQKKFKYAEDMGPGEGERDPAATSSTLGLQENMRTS
Procedure: as §1

P2X2R = target: T5, P2X2R (Rattus norvegicus, UniProt P49653); test: ATP-induced [Ca2+]i shifts in PC12 cells; conditions: 1 μM
T5 construct: endogenous in cells; host or cells: PC12 cells
T5 sequence (P49653 1-472): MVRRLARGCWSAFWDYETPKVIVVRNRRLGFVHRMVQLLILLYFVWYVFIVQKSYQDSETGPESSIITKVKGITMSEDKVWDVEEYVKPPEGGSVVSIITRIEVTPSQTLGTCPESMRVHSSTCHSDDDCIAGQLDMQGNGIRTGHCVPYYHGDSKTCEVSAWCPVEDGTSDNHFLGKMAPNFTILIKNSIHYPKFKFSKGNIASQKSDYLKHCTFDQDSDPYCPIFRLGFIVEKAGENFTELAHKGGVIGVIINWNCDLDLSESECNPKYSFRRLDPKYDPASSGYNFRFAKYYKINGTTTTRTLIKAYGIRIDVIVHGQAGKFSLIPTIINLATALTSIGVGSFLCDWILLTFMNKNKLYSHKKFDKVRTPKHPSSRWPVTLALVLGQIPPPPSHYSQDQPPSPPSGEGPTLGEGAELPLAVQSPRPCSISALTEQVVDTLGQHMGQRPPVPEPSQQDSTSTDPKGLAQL
Procedure: as §1

P2Y14R = target: T6, P2Y14R (Mus musculus, UniProt Q9ESG6); test: UDP-glucose-activated [Ca2+]i shifts in mouse peritoneal macrophages; conditions: 1 μM
T6 construct: endogenous in cells; host or cells: mouse peritoneal macrophages
T6 sequence (Q9ESG6 1-338): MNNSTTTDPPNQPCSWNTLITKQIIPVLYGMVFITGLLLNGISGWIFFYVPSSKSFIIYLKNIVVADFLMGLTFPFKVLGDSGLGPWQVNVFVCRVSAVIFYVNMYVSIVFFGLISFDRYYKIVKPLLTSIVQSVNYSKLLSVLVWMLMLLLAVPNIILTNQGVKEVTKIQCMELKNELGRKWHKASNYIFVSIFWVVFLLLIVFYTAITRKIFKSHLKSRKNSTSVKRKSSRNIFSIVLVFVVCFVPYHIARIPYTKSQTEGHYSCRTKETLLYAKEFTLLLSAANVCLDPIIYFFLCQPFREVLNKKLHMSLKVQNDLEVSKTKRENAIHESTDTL
Procedure: as §1

P2X3R = test: α,β-meATP-induced [Ca2+]i shift; conditions: 10 μM
Procedure: as §1

SMILES: O=C1CN=C(c2cccc(Br)c2)c2oc3ccccc3c2N1 [Compound 5BDBD]
Effect on ATP-induced [Ca2+]i shifts potentiated by 1 μM ivermectin (P2X4R): inhibited

SMILES: CNc1ncnc2c1ncn2[C@H]1C[C@H](OP(=O)(O)O)[C@@H](COP(=O)(O)O)O1 [MRS 2179]
Effect on ADP-induced [Ca2+]i shifts (P2Y1R): inhibited

SMILES: Nc1ncnc2c1ncn2[C@@H]1O[C@H](COP(=O)(O)OP(=O)(O)OP(=O)(O)O)[C@H]2OC3(O[C@H]21)C([N+](=O)[O-])=CC(=[N+]([O-])[O-])C=C3[N+](=O)[O-] (stereo partly shown) [TNP-ATP, reference compound]
Effect on activity of P2X3R agonist α,β-meATP (P2X3R): inhibited

Further lines, results first:

Effect on 2-S-UTP-activated [Ca2+]i shifts (P2Y2R): inhibited
SMILES: Cc1ccc2c(c1)C=Cc1cc(C)ccc1C2c1cn(Cc2ccc(C(=O)Nc3nn[nH]n3)o2)c(=O)[nH]c1=S [AR-C 118925XX]

Effect on β,γ-meATP-induced intracellular Ca2+ mobilization (P2X1R): inhibited
SMILES: O=C(Nc1cccc(C(=O)Nc2ccc(S(=O)(=O)O)c3cc(S(=O)(=O)O)cc(S(=O)(=O)O)c23)c1)Nc1cccc(C(=O)Nc2ccc(S(=O)(=O)O)c3cc(S(=O)(=O)O)cc(S(=O)(=O)O)c23)c1 [NF023, reference compound]

Effect on ATP-induced [Ca2+]i shifts (P2X2R): inhibited
SMILES: COc1cc(S(=O)(=O)O)cc2cc(S(=O)(=O)O)c(NC(=O)c3ccc(C)c(NC(=O)c4cccc(NC(=O)Nc5cccc(C(=O)Nc6cc(C(=O)Nc7cc8c(OC)cc(S(=O)(=O)O)cc8cc7S(=O)(=O)O)ccc6C)c5)c4)c3)cc12 [NF770]

Effect on UDP-glucose-activated [Ca2+]i shifts (P2Y14R): inhibited
SMILES: O=C(O)c1cc(-c2ccc(C3CCNCC3)cc2)c2ccc(-c3ccc(C(F)(F)F)cc3)cc2c1 [PPNT]
